US20240197809A1, “HAIR CARE COMPOSITION AND BANANA FLOWER EXTRACT AND METHOD FOR HAIR CARE USING THE SAME” (TCI CO., LTD., priority 2022, published 2024)

How the values were obtained:
[1] = system: dihydrotestosterone content in human prostate cell LNcap; experiment: Test of banana flower extract to inhibit dihydrotestosterone (DHT ELISA in testosterone-treated LNcap cells); format: cell-based; details: testosterone 2 h, blank group 32.8 pg/mL
Procedure: A significant increase in the production of dihydrotestosterone (DHT) in hair follicles of the forehead can be observed in young bald female patients. If the dihydrotestosterone can be inhibited, the effect of caring hair follicles and promoting hair growth is achieved. In this test, whether the content of the dihydrotestosterone in human prostate cells treated with different concentrations of banana extract was reduced or not was measured, and a common therapeutic drug Propecia for alopecia androgenetica was used as control.
Cell line: Human prostate cell LNcap (purchased from BCRC; access number Cat. 60088), hereinafter referred to as LNcap cell.
Cell medium (human prostate cell LNcap cell medium): RPMI 1640 Medium (RPMI), powder (Gibco; Cat. 31800-022), 10% fetal bovine serum (FBS) (Gibco; Cat. 10437-028) and 1% Antibiotic-Antimycotic (AA) (Gibco; Cat. 15240-062).
Reagent: 1×DPBS (Gibco, Cat. 14200-075), trypsin (1× Trypsin-EDTA, purchased from Thermo, Cat. FNN0011), Propecia (also referred to as Finasteride, purchased from Sigma; Cat. F1293), Testosterone (purchased from Sigma; Cat. T1500), and cell lysis buffer (purchased from RIPA Lysis and Extraction Buffer (Thermo #89900).
Detection kits: dihydrotestosterone ELISA Reagent Detection Kits (USCN; CEA443Ge).
Firstly, LNcap cells were implanted into a 6-well cell culture plate in a density of 1×10^5 LNcap cells and cultured at 37° C. in a 5% carbon dioxide incubator for 24 h.
The cultured LNcap cells were divided into an experimental group A, an experimental group B, a control group and a blank group. […]
Next, a 200 μL 1× cell lysis buffer was added into the tube to lyse the LNcap cells. […] Finally, the dihydrotestosterone content in the LNcap cells was detected by using a dihydrotestosterone ELISA kit. […]
(§1) Here, whether two groups compared have a statistically significant difference or not is analyzed with a single-tailed student t-test to obtain their p-values. […]

[2] = system: Human Follicle Dermal Papilla Cells (HFDPC); experiment: Hair follicle cell proliferation test (Click-iT EdU flow cytometry); format: cell-based
From the text: Hair follicle cells are the foundation of hair. In hair follicle cells at the growth phase, cells in hair follicle bulbs of the hair root can divide once a day. If the proliferation of the hair follicle cells is promoted, the effect of promoting hair growth can be achieved. In this test, the proliferation of human follicle dermal papilla cells treated with the compound I was examined.
Cell line: Human Follicle Dermal Papilla Cells (HFDPC) (purchased from PromoCell; Cat. C-12071), hereinafter referred to as HFDPC cells.
Detection kit: Cell proliferation ELISA reagent detection kit (Click-iT™ Plus EdU Flow Cytometry Assay Kits-Alexa Fluor™ 488 picolyl azide, 50 tests, brand Invitrogen, model C10632), containing composition C (Dimethyl sulfoxide DMSO), composition D (Click-iT™ fixative), composition E (Click-iT™ saponin-based permeabilization and wash reagent), composition F (Copper protectant), and composition G (Click-iT™ EdU buffer additive).
Firstly. […]
The supernatant was removed. […] Finally, a fluorescence signal was measured with a flow cytometer (excitation light: 488 nm; scattered light: 527 nm and 590 nm).
as §1

CC(C)(C)NC(=O)[C@H]1CC[C@H]2[C@@H]3CC[C@H]4NC(=O)C=C[C@]4(C)[C@H]3CC[C@]12C [Propecia, Finasteride, reference compound]
dihydrotestosterone content ([1]; 20 μg/mL (control group)): 17.16 pg/mL

CC(=O)OCC1O[C@H](O[C@]2(CO)O[C@H](COC(C)=O)C(O)C2OC(=O)/C=C/c2ccc(O)cc2)C(OC(C)=O)C(OC(C)=O)[C@@H]1O (stereo partly drawn) [compound II, 6,2′,3′,6′-O-tetraacetyl-3-O-trans-p-coumaroylsucrose]
number of the HFDPC cells (blank group = 100%) ([2]; 100 μM, Example 4, FIG. 3): 112.54%

O=C(O)CC(O)(CC(=O)O)C(=O)NCCc1ccc(O)c(O)c1 [compound I, N-β-citroyldopamine]
number of the HFDPC cells (blank group = 100%) ([2]; 10 μg/mL, Example 3, FIG. 2): 118.81%
dihydrotestosterone content ([1]; 5 μg/mL (experimental group B)): 25.20 pg/mL
dihydrotestosterone content ([1]; 10 μg/mL (experimental group A)): 25.03 pg/mL
